Measurements reported in patent publication US10253027B2, “Aryl lactam kinase inhibitors” (Bristol-Myers Squibb Company, priority 2013, dated 2019).

What follows are compounds tested against T1, GST-Xa-hAAK1 (Homo sapiens, UniProt Q2M2I8) (assay: AAK1 Kinase Assay). Settings: IC50 (nM), ATP 22 μM; 3 hours at room temperature; Caliper LabChip 3000.
T1 construct: made in house
Format: biochemical
Procedure: The assays were performed in U-bottom 384-well plates. […] The reactions were initiated by the combination of bacterially expressed, GST-Xa-hAAK1 with substrates and test compounds. The reactions were incubated at room temperature for 3 hours and terminated by adding 60 μl of 35 mM EDTA buffer to each sample. The reactions were analyzed on the Caliper LabChip 3000 (Caliper, Hopkinton, Mass.) by electrophoretic separation of the fluorescent substrate and phosphorylated product. […] Compounds were dissolved at 10 mM in dimethylsulfoxide (DMSO) and evaluated at eleven concentrations. IC50 values were derived by non-linear regression analysis.

T1 sequence (Q2M2I8 whole entry): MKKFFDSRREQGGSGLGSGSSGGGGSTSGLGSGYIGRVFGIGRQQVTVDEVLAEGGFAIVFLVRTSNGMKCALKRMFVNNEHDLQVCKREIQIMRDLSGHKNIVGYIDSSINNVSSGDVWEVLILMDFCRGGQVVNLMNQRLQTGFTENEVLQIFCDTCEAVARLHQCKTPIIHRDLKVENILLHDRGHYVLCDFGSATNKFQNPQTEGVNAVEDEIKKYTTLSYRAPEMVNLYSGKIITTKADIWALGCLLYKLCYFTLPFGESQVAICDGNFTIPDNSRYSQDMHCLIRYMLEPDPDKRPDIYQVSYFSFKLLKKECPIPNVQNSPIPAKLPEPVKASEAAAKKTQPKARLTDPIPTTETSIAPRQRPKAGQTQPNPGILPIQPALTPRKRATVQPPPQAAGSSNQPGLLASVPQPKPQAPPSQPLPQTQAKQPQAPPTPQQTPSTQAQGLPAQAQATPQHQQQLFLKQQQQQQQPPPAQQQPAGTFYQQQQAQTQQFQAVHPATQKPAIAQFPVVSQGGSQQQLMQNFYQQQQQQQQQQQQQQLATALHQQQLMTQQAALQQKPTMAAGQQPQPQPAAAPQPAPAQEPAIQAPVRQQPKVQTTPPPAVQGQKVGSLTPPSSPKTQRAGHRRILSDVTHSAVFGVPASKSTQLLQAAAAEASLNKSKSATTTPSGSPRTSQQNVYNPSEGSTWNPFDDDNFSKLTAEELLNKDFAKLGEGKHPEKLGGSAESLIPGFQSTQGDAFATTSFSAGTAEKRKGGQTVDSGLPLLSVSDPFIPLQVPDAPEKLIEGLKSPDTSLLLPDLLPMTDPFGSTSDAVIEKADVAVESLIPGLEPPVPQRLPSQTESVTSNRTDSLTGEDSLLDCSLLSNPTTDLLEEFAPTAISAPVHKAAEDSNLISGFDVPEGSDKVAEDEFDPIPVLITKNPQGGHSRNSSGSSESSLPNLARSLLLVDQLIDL

IC50	Structure (SMILES)
20 nM	COc1cc(NC(=O)C(N)C2CCCCC2C)ccc1-c1cnco1 (mixture of isomers) [Example 93, 2-Amino-N-(3-methoxy-4-(oxazol-5-yl)phenyl)-2-(2-methylcyclohexyl)acetamide]
33 nM	CC(C)C1CCCNC1C(=O)Nc1ccc(-c2ccncc2)cc1 (mixture of isomers) [Example 119, 3-Isopropyl-N-(4-(pyridin-4-yl)phenyl)piperidine-2-carboxamide]
220 nM	O=C(Nc1ccc(-c2ccncc2)cc1)C1NCCCC1C(F)(F)F (mixture of isomers) [Example 120, N-(4-(Pyridin-4-yl)phenyl)-3-(trifluoromethyl)piperidine-2-carboxamide]
140 nM	CC1CCCCC1C(N)C(=O)Nc1ccc(-c2ccncc2)cc1 (mixture of isomers) [Example 121, 2-Amino-2-(2-methylcyclohexyl)-N-(4-(pyridin-4-yl)phenyl)acetamide]
64 nM	NC(C(=O)Nc1ccc(-c2ccncc2)cc1)C1CCCCC1C(F)(F)F (mixture of isomers) [Example 122, 2-Amino-N-(4-(pyridin-4-yl)phenyl)-2-(2-(trifluoromethyl)cyclohexyl)acetamide]
48 nM	COc1cc(NC(=O)C2NCCC2C(C)C)ccc1-c1cnco1 (single isomer, unassigned) [Example 36, 3-Isopropyl-N-(3-methoxy-4-(oxazol-5-yl)phenyl)pyrrolidine-2-carboxamide]
8 nM	COc1cc(NC(=O)C2NCCC2C(C)C)ccc1-c1cnco1 (single isomer, unassigned) [Example 37, 3-Isopropyl-N-(3-methoxy-4-(oxazol-5-yl)phenyl)pyrrolidine-2-carboxamide]
110 nM	COc1cc(NC(=O)C2NCCC2C(C)C)ccc1-c1cnco1 (single isomer, unassigned) [Example 38, 3-Isopropyl-N-(3-methoxy-4-(oxazol-5-yl)phenyl)pyrrolidine-2-carboxamide]
29 nM	COc1cc(NC(=O)C2NCCC2C(C)C)ccc1-c1cnco1 (single isomer, unassigned) [Example 39, 3-Isopropyl-N-(3-methoxy-4-(oxazol-5-yl)phenyl)pyrrolidine-2-carboxamide]
280 nM	COc1cc(NC(=O)C2NCCCC2C(C)C)ccc1-c1cnco1 (single isomer, unassigned) [Example 87, 3-Isopropyl-N-(3-methoxy-4-(oxazol-5-yl)phenyl)piperidine-2-carboxamide]
417 nM	COc1cc(NC(=O)C2NCCCC2C(F)(F)F)ccc1-c1cnco1 (single isomer, unassigned) [Example 91, N-(3-Methoxy-4-(oxazol-5-yl)phenyl)-3-(trifluoromethyl)piperidine-2-carboxamide]
74 nM	COc1cc(NC(=O)C2NCCCC2C(F)(F)F)ccc1-c1cnco1 (single isomer, unassigned) [Example 92, N-(3-Methoxy-4-(oxazol-5-yl)phenyl)-3-(trifluoromethyl)piperidine-2-carboxamide]
750 nM	COc1cc(NC(=O)[C@H](N)CC2CCC2)c(F)cc1-c1cnco1 (stereo in doubt) [Example 94, 2-Amino-3-cyclobutyl-N-(2-fluoro-5-methoxy-4-(oxazol-5-yl)phenyl)propanamide]
420 nM	COc1cc(NC(=O)[C@H](N)CC2CC2)c(F)cc1-c1cnco1 (stereo in doubt) [Example 95, 2-Amino-3-cyclopropyl-N-(2-fluoro-5-methoxy-4-(oxazol-5-yl)phenyl)propanamide]
630 nM	COc1cc(NC(=O)[C@H](N)CC(C)(C)C)c(F)cc1-c1cnco1 (stereo in doubt) [Example 97, 2-Amino-N-(2-fluoro-5-methoxy-4-(oxazol-5-yl)phenyl)-4,4-dimethylpentanamide]
346 nM	COc1cc(NC(=O)[C@H]2CCCN2)ccc1-c1cnco1 [Example 2, (R)—N-(3-Methoxy-4-(oxazol-5-yl)phenyl)pyrrolidine-2-carboxamide]
